Results on 2 compounds are retold here after patent US20250127770A1, “FORMULATIONS OF RADIPRODIL” (GRIN Therapeutics, Inc., priority 2021, published 2025).

Series [1] in a line: Stability study of radiprodil solid forms (dihydrate vs anhydrous form A). The series is classed as physicochemical. The note with it: in presence of water.
A short description of series [2]: Dissolution test, USPII paddle apparatus, 0.5% sodium lauryl sulphate solution in water. The series is classed as physicochemical. The note with it: without reconstitution in SYRSPEND SF and water prior to the test; FIG. 2. As to the method: This study summarizes dissolution experiments preformed on the radiprodil drug substance and on the drug product including two drug loadings with and without reconstitution in SYRSPEND® and water prior to the dissolution test.
All dissolution experiments were performed on six vessels and the comparative curves were plotted using the average of them.
Some dissolution experiments were performed using prior to the dissolution a reconstitution in Syrpend® and water. In that case, the reconstitution was prepared and let under stirring for 1 night prior to the dissolution test. In order to mimic the clinical pharmacy manual, an additional test was performed with an extemporaneous suspension (15 min under stirring prior to the dissolution).
Dissolution and high performance liquid chromatography (HPLC) parameters used in the experiments are provided below in Tables […] and 12, respectively.
Radiprodil, as the dihydrate and Form A, as well as Form A containing granules (1% and 10% as described above) and blends of dihydrate and Form A (1% and 10% blends of dihydrate form and Form A) were submitted to dissolution tests in sodium lauryl sulfate (0.5% in water). […]

Take `O=C(Nc1ccc2[nH]c(=O)oc2c1)C(=O)N1CCC(Cc2ccc(F)cc2)CC1` (single isomer, unassigned) [anhydrous form A, Radiprodil]: in series [1], the “Stability of solid form” value is “more stable than the dihydrate even in presence of water”.
With `O=C(Nc1ccc2[nH]c(=O)oc2c1)C(=O)N1CCC(Cc2ccc(F)cc2)CC1` [dihydrate form, Radiprodil], the Dissolution profile result in series [2] is given as “more rapid in aqueous media than the one of anhydrous form A”.
